Test results taken from patent US8802597B2, “Herbicidal pyrimidines” (E I du Pont de Nemours and Company, priority 2003, dated 2014).
Read-outs that look alike come from different tables or passages of the source.

What was measured:
Format in all cases: in vivo
[1] = test system: chickweed (Stellaria media); assay: Test C postemergence; conditions: Stellaria media, post-emergence
In short: (§1)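 We sprayed seeded pots preemergence and 2–18 cm seedlings postemergence with test chemicals in a non-phytotoxic solvent mixture including surfactant. Greenhouse plants were visually compared with untreated controls at 12 to 14 days and scored 0 (no effect) to 100 (complete control).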

[2] = test system: morningglory (Ipomoea spp.); assay: Test A pre/postemergence; conditions: Ipomoea, 240 h, read-out: Plant response rating, Morningglory; for pest or weed control at 500 g/ha: 500 g ai/ha; for pest or weed control at 2000 g/ha: 2000 g ai/ha
In short: (§2)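 Visual injury scored 0–100 (0 = no effect, 100 = complete control) against untreated controls after about ten days in the greenhouse. Compounds, formulated in non-phytotoxic solvent plus surfactant, were applied preemergence as a directed soil spray and postemergence at the 1- to 2-leaf stage (2–10 cm).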

[3] = test system: barnyardgrass (Echinochloa crus-galli); assay: Test A pre/postemergence; conditions: Echinochloa crus-galli, 240 h, read-out: Plant response rating, Barnyardgrass; for pest or weed control at 500 g/ha: 500 g ai/ha; for pest or weed control at 2000 g/ha: 2000 g ai/ha
In short: as §2

[4] = test system: crabgrass (Digitaria sanguinalis); assay: Test A pre/postemergence; conditions: Digitaria sanguinalis, 240 h, read-out: Plant response rating, Crabgrass; for pest or weed control at 500 g/ha: 500 g ai/ha; for pest or weed control at 2000 g/ha: 2000 g ai/ha
In short: as §2

[5] = test system: giant foxtail (Setaria faberi); assay: Test A pre/postemergence; conditions: Setaria faberi, 240 h, read-out: Plant response rating, Foxtail, Giant; for pest or weed control at 500 g/ha: 500 g ai/ha; for pest or weed control at 2000 g/ha: 2000 g ai/ha
In short: as §2

[6] = test system: velvetleaf (Abutilon theophrasti); assay: Test A pre/postemergence; conditions: Abutilon theophrasti, 240 h, read-out: Plant response rating, Velvetleaf; for pest or weed control at 500 g/ha: 500 g ai/ha; for pest or weed control at 2000 g/ha: 2000 g ai/ha
In short: as §2

[7] = test system: redroot pigweed (Amaranthus retroflexus); assay: Test A pre/postemergence; conditions: Amaranthus retroflexus, 240 h, read-out: Plant response rating, Pigweed; for pest or weed control at 500 g/ha: 500 g ai/ha; for pest or weed control at 2000 g/ha: 2000 g ai/ha
In short: as §2

[8] = test system: common ragweed (Ambrosia elatior); assay: Test C pre/postemergence; conditions: Ambrosia artemisiifolia; for pest or weed control at 62 g/ha: 62 g ai/ha; for pest or weed control at 125 g/ha: 125 g ai/ha; for pest or weed control at 250 g/ha: 250 g ai/ha; for pest or weed control at 500 g/ha: 500 g ai/ha
In short: as §1

[9] = test system: lambsquarters (Chenopodium album); assay: Test C pre/postemergence; conditions: Chenopodium album; for pest or weed control at 62 g/ha: 62 g ai/ha; for pest or weed control at 125 g/ha: 125 g ai/ha; for pest or weed control at 250 g/ha: 250 g ai/ha; for pest or weed control at 500 g/ha: 500 g ai/ha
In short: as §1

corn (Zea mays) = assay: Test C pre/postemergence; conditions: Zea mays; for Corn plant response rating (crop injury, 0 = no effect, 100 = complete kill) at 62 g/ha: 62 g ai/ha; for Corn plant response rating (crop injury, 0 = no effect, 100 = complete kill) at 125 g/ha: 125 g ai/ha; for Corn plant response rating (crop injury, 0 = no effect, 100 = complete kill) at 250 g/ha: 250 g ai/ha; for Corn plant response rating (crop injury, 0 = no effect, 100 = complete kill) at 500 g/ha: 500 g ai/ha
In short: as §1

[10] = test system: cocklebur (Xanthium strumarium); assay: Test C pre/postemergence; conditions: Xanthium strumarium; for pest or weed control at 62 g/ha: 62 g ai/ha; for pest or weed control at 125 g/ha: 125 g ai/ha; for pest or weed control at 250 g/ha: 250 g ai/ha; for pest or weed control at 500 g/ha: 500 g ai/ha
In short: as §1

[11] = post-emergence, Postemergence, 0 to 100 scale (0 no effect, 100 complete control)
[12] = pre-emergence, Preemergence, 0 to 100 scale where 0 is no effect and 100 is complete control, approximately ten days
[13] = pre-emergence, Preemergence, 0 to 100 scale (0 no effect, 100 complete control)
[14] = post-emergence, Postemergence, scale 0 to 100 (0 no effect, 100 complete control), read-out: Ragweed plant response rating
[15] = post-emergence, Postemergence, scale 0 to 100, read-out: Plant response rating, Ragweed
[16] = pre-emergence, Preemergence, scale 0 to 100, read-out: Plant response rating, Ragweed
[17] = post-emergence, Postemergence, scale 0 to 100 (0 no effect, 100 complete control), read-out: Lambsquarters plant response rating
[18] = post-emergence, Postemergence, scale 0 to 100, read-out: Plant response rating, Lambsquarters
[19] = pre-emergence, Preemergence, scale 0 to 100, read-out: Plant response rating, Lambsquarters
[20] = post-emergence, Postemergence, scale 0 to 100 (0 no effect, 100 complete control), read-out: Corn plant response rating
[21] = post-emergence, Postemergence, scale 0 to 100
[22] = pre-emergence, Preemergence, scale 0 to 100
[23] = post-emergence, Postemergence, scale 0 to 100 (0 no effect, 100 complete control), read-out: Cocklebur plant response rating
[24] = post-emergence, Postemergence, scale 0 to 100, read-out: Plant response rating, Cocklebur
[25] = pre-emergence, Preemergence, scale 0 to 100, read-out: Plant response rating, Cocklebur

`CCOC(=O)c1nc(C2CC2)nc(N)c1Br` [Compound 1, ethyl 6-amino-5-bromo-2-cyclopropyl-4-pyrimidinecarboxylate] was tested, and the pest or weed control at 62 g/ha ([1]; 62 g ai/ha, scale 0 to 100 (0 no effect, 100 complete control), read-out: Chickweed plant response rating) was 80%, the pest or weed control at 250 g/ha ([1]; 250 g ai/ha, scale 0 to 100, read-out: Plant response rating, Chickweed) was 90% and the pest or weed control at 500 g/ha [2, 11] was 95%. It also gave a pest or weed control at 2000 g/ha [2, 11] of 100%, a pest or weed control at 500 g/ha [2, 12] of 85% and a pest or weed control at 2000 g/ha [2, 13] of 100%. The pest or weed control at 500 g/ha [3, 11] was 75%, the pest or weed control at 2000 g/ha [3, 11] was 75% and the pest or weed control at 500 g/ha [3, 12] was 60%. It also gave a pest or weed control at 2000 g/ha [3, 13] of 80%, a pest or weed control at 500 g/ha [4, 11] of 65% and a pest or weed control at 2000 g/ha [4, 11] of 80%. The pest or weed control at 500 g/ha [4, 12] was 25%, the pest or weed control at 2000 g/ha [4, 13] was 75% and the pest or weed control at 500 g/ha [5, 11] was 70%. The pest or weed control at 2000 g/ha [5, 11] was 75%, the pest or weed control at 500 g/ha [5, 12] was 40% and the pest or weed control at 2000 g/ha [5, 13] was 85%. The pest or weed control at 500 g/ha [6, 11] was 95%, the pest or weed control at 2000 g/ha [6, 11] was 85% and the pest or weed control at 500 g/ha [6, 12] was 60%. The pest or weed control at 2000 g/ha [6, 13] was 80%, the pest or weed control at 500 g/ha [7, 11] was 100% and the pest or weed control at 2000 g/ha [7, 11] was 100%. The pest or weed control at 500 g/ha [7, 12] was 85%, the pest or weed control at 2000 g/ha [7, 13] was 100% and the pest or weed control at 62 g/ha [8, 14] was 100%. For the same compound, the pest or weed control at 125 g/ha [8, 14] was 100%, the pest or weed control at 250 g/ha [8, 15] was 100% and the pest or weed control at 500 g/ha [8, 15] was 100%. The pest or weed control at 62 g/ha ([8]; pre-emergence, Preemergence, scale 0 to 100, 0 no effect, 100 complete control, read-out: Plant response rating, Ragweed) was 95%, the pest or weed control at 125 g/ha [8, 16] was 100% and the pest or weed control at 250 g/ha [8, 16] was 100%. The pest or weed control at 500 g/ha [8, 16] was 100%, the pest or weed control at 62 g/ha [9, 17] was 100% and the pest or weed control at 125 g/ha [9, 17] was 100%. For the same compound, the pest or weed control at 250 g/ha [9, 18] was 100%, the pest or weed control at 500 g/ha [9, 18] was 100% and the pest or weed control at 62 g/ha ([9]; pre-emergence, Preemergence, scale 0 to 100, 0 no effect, 100 complete control, read-out: Plant response rating, Lambsquarters) was 95%. For the same compound, the pest or weed control at 125 g/ha [9, 19] was 100%, the pest or weed control at 250 g/ha [9, 19] was 100% and the pest or weed control at 500 g/ha [9, 19] was 100%. The Corn plant response rating (crop injury, 0 = no effect, 100 = complete kill) at 62 g/ha (corn (Zea mays); [20]) was 10%, the Corn plant response rating (crop injury, 0 = no effect, 100 = complete kill) at 125 g/ha (corn (Zea mays); [20]) was 15% and the Corn plant response rating (crop injury, 0 = no effect, 100 = complete kill) at 250 g/ha (corn (Zea mays); [21]) was 40%. It also gave a Corn plant response rating (crop injury, 0 = no effect, 100 = complete kill) at 500 g/ha (corn (Zea mays); [21]) of 45%, a Corn plant response rating (crop injury, 0 = no effect, 100 = complete kill) at 62 g/ha (corn (Zea mays); pre-emergence, Preemergence, scale 0 to 100, 0 no effect, 100 complete control, read-out: Plant response rating, Corn) of 0% and a Corn plant response rating (crop injury, 0 = no effect, 100 = complete kill) at 125 g/ha (corn (Zea mays); pre-emergence, Preemergence, scale 0 to 100, read-out: Plant response rating, Corn) of 0%. For the same compound, the Corn plant response rating (crop injury, 0 = no effect, 100 = complete kill) at 250 g/ha (corn (Zea mays); [22]) was 50%, the Corn plant response rating (crop injury, 0 = no effect, 100 = complete kill) at 500 g/ha (corn (Zea mays); [22]) was 70% and the pest or weed control at 62 g/ha [10, 23] was 90%. For the same compound, the pest or weed control at 125 g/ha [10, 23] was 100%, the pest or weed control at 250 g/ha [10, 24] was 100% and the pest or weed control at 500 g/ha [10, 24] was 100%. The pest or weed control at 62 g/ha ([10]; pre-emergence, Preemergence, scale 0 to 100, 0 no effect, 100 complete control, read-out: Plant response rating, Cocklebur) was 90%, the pest or weed control at 125 g/ha [10, 25] was 100% and the pest or weed control at 250 g/ha [10, 25] was 100%. The pest or weed control at 500 g/ha [10, 25] was 100%.
